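Each compound was tested at five concentrations against cells in 96-well plates for 48 hours. TGI denotes the concentration required for complete inhibition of growth.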
Columns and labels:
Assay in all cases: NCI-60 cell line screen, 48 h
[1] = system: 786-0 renal
[2] = system: A549 NSCLC
[3] = system: ACHN renal
[4] = system: BT-549 breast
[5] = system: CAKI-1 renal
[6] = system: CCRF-CEM leukemia
[7] = system: COLO 205 colon
[8] = system: DU-145 prostate
[9] = system: EKVX NSCLC
[10] = system: HCC-2998 colon
[11] = system: HCT-116 colon
[12] = system: HCT-15 colon
[13] = system: HL-60(TB) leukemia
[14] = system: HOP-62 NSCLC
[15] = system: HOP-92 NSCLC
[16] = system: HS 578T breast
[17] = system: HT29 colon
[18] = system: IGROV1 ovarian
[19] = system: LOX IMVI melanoma
[20] = system: M14 melanoma
[21] = system: MALME-3M melanoma
[22] = system: MCF7 breast
[23] = system: MDA-MB-231 breast
[24] = system: MDA-MB-435
[25] = system: MDA-N
[26] = system: MOLT-4 leukemia
[27] = system: NCI-H226 lung
[28] = system: NCI-H23 lung
[29] = system: NCI-H522 lung
[30] = system: NCI/ADR-RES ovarian
[31] = system: OVCAR-3 ovarian
[32] = system: OVCAR-4 ovarian
[33] = system: OVCAR-5 ovarian
[34] = system: OVCAR-8 ovarian
[35] = system: PC-3 prostate
[36] = system: RPMI-8226 leukemia
[37] = system: RXF 393 renal
[38] = system: SF-268 CNS
[39] = system: SF-295 CNS
[40] = system: SF-539 CNS
[41] = system: SK-MEL-2 melanoma
[42] = system: SK-MEL-28 melanoma
[43] = system: SK-MEL-5 melanoma
[44] = system: SK-OV-3 ovarian
[45] = system: SN12C renal
[46] = system: SNB-19 CNS
[47] = system: SNB-75 CNS
[48] = system: SR leukemia
[49] = system: SW-620 colon
[50] = system: T-47D breast
[51] = system: TK-10 renal
[52] = system: U251 CNS
[53] = system: UACC-257 melanoma
[54] = system: UACC-62 melanoma
[55] = system: UO-31 renal
[56] = system: K-562 leukemia
[57] = system: KM12 colon
[58] = system: NCI-H460 lung
[59] = system: A498 renal

Measured: TGI

CN(C)c1ccc(/C=C2/NC(=S)NC2=O)cc1
80.8 µM: [6]
51 µM: [13]
not listed: [56] | [57] | [58] | [59]
> 100 µM: all other assays above

Cc1nc(-c2cc3c(ccc4ccccc43)oc2=O)cs1
57.8 µM: [4]
89.5 µM: [15]
75.2 µM: [47]
99.3 µM: [16]
not listed: [28] | [31] | [59]
> 100 µM: all other assays above

CCOC(=O)c1oc2cc3c(c4c2c1-c1ccccc1N4C)C=CC(C)(C)O3
28.9 µM: [37]
> 55.3 µM: [35]
> 84.4 µM: [50]
27.1 µM: [34]
65.5 µM: [55]
> 67.4 µM: [28]
> 49.3 µM: [38]
46.5 µM: [18]
30.8 µM: [39]
36.4 µM: [47]
> 70 µM: [8]
30.5 µM: [3]
> 54.9 µM: [46]
26.8 µM: [22]
97.9 µM: [43]
59.6 µM: [4]
40.8 µM: [5]
> 80.4 µM: [57]
42.6 µM: [29]
21.2 µM: [40]
> 95.4 µM: [42]
45.3 µM: [31]
> 76.4 µM: [41]
69.4 µM: [44]
> 91 µM: [56]
48.9 µM: [27]
24.7 µM: [14]
46.6 µM: [9]
54.3 µM: [21]
> 43.4 µM: [54]
27.6 µM: [30]
> 53 µM: [1]
> 64 µM: [17] | [36]
> 71.4 µM: [59]
31 µM: [52]
75.1 µM: [16]
27.3 µM: [51]
17.7 µM: [15]
not listed: [48]
> 100 µM: all other assays above

O=C(O)CCC(=O)Nc1ccc2ccccc2c1
not listed: [40] | [48]
> 100 µM: all other assays above

C=C1[C@H](OC(C)=O)[C@H]2[C@@H](OC(C)=O)[C@@H](C)C[C@]2(C)C(=O)[C@H](C)/C=C/C(C)(C)C(=O)[C@H](OCC(C)C)[C@H]1OC(C)=O
not listed: [2] | [17] | [21] | [36] | [42] | [56]
> 25 µM: all other assays above

CCCC/C=C/C/C=C/CCCCCCCCC(=O)OCC1CCCN2CCCCC12 (stereo not given)
88.6 µM: [50]
not listed: [18] | [29] | [48]
> 100 µM: all other assays above

CCOC(=O)CCCNC(=O)CCCCC(=O)N(C)C
not listed: [32] | [37] | [47] | [48]
> 100 µM: all other assays above
